Reference: patent US9777002B2, “Inhibitors of the renal outer medullary potassium channel” (Merck Sharp & Dohme Corp., priority 2012, dated 2017)

Columns and labels:
hROMK (hKir1.1) = biological target: T1, hROMK (hKir1.1) (Homo sapiens, UniProt P48048); experiment: Thallium Flux Assay; type: cell-based; details: HEK293 cells stably expressing hROMK (hKir1.1)
T1 construct: expressed in transfected cells
T1 sequence (P48048 1-391): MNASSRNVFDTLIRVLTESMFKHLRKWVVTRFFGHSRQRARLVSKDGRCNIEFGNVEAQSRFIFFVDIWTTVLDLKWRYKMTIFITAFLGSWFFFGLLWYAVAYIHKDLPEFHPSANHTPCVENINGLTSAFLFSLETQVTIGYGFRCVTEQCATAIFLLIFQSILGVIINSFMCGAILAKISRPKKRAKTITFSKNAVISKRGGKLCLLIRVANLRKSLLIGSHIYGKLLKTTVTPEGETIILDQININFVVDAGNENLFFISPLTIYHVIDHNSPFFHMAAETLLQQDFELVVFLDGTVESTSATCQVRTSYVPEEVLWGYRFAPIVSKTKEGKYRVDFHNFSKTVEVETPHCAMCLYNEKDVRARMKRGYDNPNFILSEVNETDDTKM
In short: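 HEK293 cells stably expressing hROMK were loaded with FluxOR dye for 90 min, then incubated with compound in probenecid assay buffer plus 0.3 mM ouabain, pH 7.4, for 30 min at 23-25 °C. Flux was triggered with 3 mM thallium/0.3 mM potassium (final) and read on FLIPR-Tetra for ~10 min. IC50 was calculated against the signal blocked by 3 μM control inhibitor.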

Kir1.1 (ROMK1) = biological target: T2, Kir1.1 (ROMK1) (Homo sapiens, UniProt P48048); experiment: Electrophysiology Assay (whole cell voltage clamp, IonWorks Quattro); type: cell-based; details: Chinese hamster ovary cells stably expressing Kir1.1; block during voltage step to 0 mV
T2 construct: expressed in transfected cells; expression induced with sodium butyrate
T2 sequence (P48048 1-391): T1 sequence (P48048 1-391)
Experimental: Block of Kir1.1 (ROMK1) currents was examined by whole cell voltage clamp (Hamill et. al. Pfluegers Archives 391:85-100 (1981)) using the IonWorks Quattro automated electrophysiology platform (Molecular Devices, Sunnyvale, Calif.). Chinese hamster ovary cells stably expressing Kir1.1 channels were maintained in T-75 flasks in cell culture media in a humidified 10% CO2 incubator at 37° C. Prior to an experiment, Kir1.1 expression was induced by overnight incubation with 1 mM sodium butyrate. On the day of the experiment, cells were dissociated with 2.5 mL of Versene (Invitrogen 15040-066) for approximately 6 min at 37° C. and suspended in 10 mL of bath solution containing (in mM): 150 NaCl, 10 KCl, 2.7 CaCl2, 0.5 MgCl2, 5 HEPES, pH 7.4. After centrifugation, the cell pellet was resuspended in approximately 4.0 mL of bath solution and placed in the IonWorks instrument. The intracellular solution consisted of (in mM): 80 K gluconate, 40 KCl, 20 KF, 3.2 MgCl2, 3 EGTA, 5 Hepes, pH 7.4. Electrical access to the cytoplasm was achieved by perforation in 0.13 mg/mL amphotericin B for 4 min. Amphotericin B (Sigma A-4888) was prepared as a 40 mg/mL solution in DMSO. Voltage protocols and current recordings were performed using the IonWorks HT software/hardware system. Currents were sampled at 1 kHz. No correction for liquid junction potentials was used. The test pulse, consisting of a 100 ms step to 0 mV from a holding potential of −70 mV, followed by a 100 ms voltage ramp from −70 mV to +70 mV, was applied before and after a 6 min compound incubation period. Test compounds were prepared by diluting DMSO stock solutions into the bath solution at 3× the final concentration and placed in the instrument in 96-well polypropylene plates. Current amplitudes were measured using the IonWorks software. To assess compound potency, the fractional block during the voltage step to 0 mV was calculated in Microsoft Excel (Microsoft, Redmond, Calif.), and dose-response curves were fitted with Igor Pro 4.0 (WaveMetrics, Lake Oswego, Oreg.). Normally, a control compound is included to support that the assay is giving consistent results compared to previous measurements, although the control is not required to obtain the results for the test compounds.

Row | IC50 (hROMK (hKir1.1)) [nM] | IC50 (Kir1.1 (ROMK1)) [nM] | Compound
1 | 10 | 40 | Cc1c(CCN2CCC(NC(=O)c3ccc4c(c3)COC4=O)CC2)ccc2c1COC2=O [Example 1, N-(1-(2-(4-Methyl-1-oxo-1,3-dihydroisobenzofuran-5-yl)ethyl)piperidin-4-yl)-1-oxo-1,3-dihydroisobenzofuran-5-carboxamide]
2 | 1000 | 120 | Cc1c(CCN2CCC(NC(=O)c3ccc(F)c(C#N)c3)CC2)ccc2c1COC2=O [Example 12, 3-Cyano-4-fluoro-N-(1-(2-(4-methyl-1-oxo-1,3-dihydroisobenzofuran-5-yl)ethyl)piperidin-4-yl)benzamide]
3 | 1230 | 240 | Cc1c(CCN2CCC(NC(=O)c3ccc(C#N)cc3S(C)(=O)=O)CC2)ccc2c1COC2=O [Example 29, 4-Cyano-N-(1-(2-(4-methyl-1-oxo-1,3-dihydroisobenzofuran-5-yl)ethyl)piperidin-4-yl)-2-(methylsulfonyl)benzamide]
4 | 1320 | 630 | Cc1c([C@@H](O)CN2CCC(C)(NC(=O)c3ccc(C#N)cn3)CC2)ccc2c1COC2=O [Example 40, (R)-5-Cyano-N-(1-(2-hydroxy-2-(4-methyl-1-oxo-1,3-dihydroisobenzofuran-5-yl)ethyl)-4-methylpiperidin-4-yl)picolinamide]
